# In US7781594B2, “5-(4-methanesulfonyl-phenyl)-thiazole derivatives for the treatment of acute and chronic inflammatory diseases” (Faes Farma, S.A., priority 2008, dated 2010):
# Experiments:
# Type in all cases: cell-based, human
# TNF-alpha [1] = assay: TNF-alpha production by PBMC of healthy volunteers, ELISA
# Protocol: In order to quantify the serum cytokines concentration, the extracted blood was stored in tubes both with and without anti-coagulant (collected by antecubital venopunction and arterial catheter, respectively). Blood was allowed to coagulate at room temperature in the laboratory, further separating the serum by centrifugation (600×g during 20 minutes). Supernatant were collected, filtered, divided in aliquotes and stored at −70° C. Concentration assays for different cytokines were performed by using the commercial kits described in Table 2.
# Supernatants were unfrozen up to the room temperature and faced against the respective anti-cytokine by fixing them in the plate bottom and incubating them during a variable time. […] The results were assessed with the enzymo-immunoanalysis reader Multititer Plus (Tiertek Multiscan Plus, Flow Laboratories). […]
# Effects of compound 12 on TNF-alpha production by PBMC of healthy volunteers in the presence or in the absence of LPS were first investigated. […] Supernatant of cultures were frozen at −20° C. and the concentration of TNF-alpha was quantified with ELISA species-specific (enzyme-linked immunosorbent assay for quantitative detection of tumour necrosis factor-alpha: human TNF-alpha ELISA BM S223/4TEUCE, Bender Med System Inc, Burlinghane Calif. 94010).
# TNF-alpha [2] = assay: TNF-alpha production by PBMC from patients with rheumatoid arthritis, CBA
# Protocol: (§1) CBA protocol was followed according to the manufacturer's instructions. The election of microparticles was performed following the summary of FIG. 1.
# (§2) The acquisition on samples was performed with the BD FACS Array Bioanalyser System (FACSArray, Becton Dickinson, San José, Calif., USA) and the analysis of the results was completed with the software FCAP Array (Becton Dickinson) in a PC computer.
# Briefly, the experimental protocol consisted of a plate pre-washing out with Wash Buffer. After decantation, the mixture of capture microparticles was re-suspended in the vortex. Standards and samples were added in the adequate dilution. […]
# In another experiment, PBMC (5×10^4 cells per well) from 7 patients with rheumatoid arthritis were cultured in duplicate in 200 μl of complete medium supplemented with the highest solvent (10^−6 M), and 10^−6 M, 10^−7 M and 10^−8 M compound 12 and in the presence and absence of either LPS (10 μg/ml), or anti-CD3 (12.5 ng/ml) (Orthoclone OKT3, Orthopharmaceutical Corporation, Raritan N.J., USA)+anti-CD28 (⅓×10^5) (Clon 15E8, Menarini, Madrid, Spain), during 24 hours. Culture supernatants were frozen at −20° C. and the concentration of TNF-alpha quantified by BD FACS Array Bioanalyser by using CBA Flex Set (Becton Dickinson), specific for determining the concentration of that cytokine, following the manufacturer instructions.
# IL-8 = IL-8 production by PBMC from patients with rheumatoid arthritis, CBA
# Protocol: as §1, §2
# Briefly, the experimental protocol consisted of a plate pre-washing out with Wash Buffer. After decantation, the mixture of capture microparticles was re-suspended in the vortex. Standards and samples were added in the adequate dilution. After permanent stirring incubation during 1 h, the PE detection reagent was added and incubated again during 2 h at room temperature. After a washing-out, the acquisition was performed in the flow cytometer.
# The effect on IL-8 production by PBMC from patients with rheumatoid arthritis was also studied. […] Culture supernatants were frozen at −20° C. and IL-8 concentration was quantified by BD FACS Array Bioanalyser by using CBA Flex Set, specific to determine IL-8 concentration, following the manufacturer instructions.
# CD62L in lymphocytes = assay: Shedding of CD62L in lymphocytes of PBMC, flow cytometry; conditions: healthy volunteers; 10^−6 M; p<0.05; FIG. 12a
# Protocol: (§3) Direct immuno-fluorescence techniques of one colour with monoclonal antibodies phycoerythrin-labeled (PE) was used. PE is a fluorescent substance excitable with a 488 nm laser, which emits at 570 nm, and it is detectable and easily distinguishable by a flow cytometer. By using the antibody described in Table 1, a direct labelling was performed:
# (§4) PBMC labelling: the process consisted in a labelling using 96 well V bottom plates. In each well, 5×10^4 cells are located, and afterwards centrifugated at 400×g during 5 minutes. After washing-out, cells are re-suspended and 5 μl of the corresponding monoclonal antibody are added. Cells are again re-suspended and the plate is incubated in darkness, during 20 minutes, at 4° C. Subsequently, 150 μl PBS are added and two wash-outs are performed. Finally, it is re-suspended in 150 μl PBS and collected in a cytometer tube, adding PBS up to a final volume of 0.3 ml.
# (§5) For the counting, a FACSCalibur flow cytometer equipped with argon laser tuned at 488 nm was used in order to induce phycoerythrin fluorescence. The equipment, apart from the fluorescence channels, also provided information about the size (FSC) and cellular complexity (SSC).
# (§6) As negative controls, the study cells with no labelling and other irrelevant labelled with monoclonal antibodies of equal isotypes than the ones used in the study (IgG1-FITC, PE y TC, IgG2a FITC, PE, TC), were used. […]
# CD62L in monocytes = assay: Shedding of CD62L in monocytes of PBMC, flow cytometry; conditions: healthy volunteers; FIG. 12b
# Protocol: as §3, §4, §5, §6
smiles,measurement,setting,value
"Cc1nc(OC2CCCC2)c(-c2ccc(S(C)(=O)=O)cc2)s1 [Compound 12, 4-cyclopentyloxy-5-(4-methylsulfonyl-phenyl)-2-methyl-thiazole]",Effect on TNF-alpha concentration in the supernatant of LPS-stimulated PBMC,"TNF-alpha [1]; 10^−6 M and 10^−7 M, LPS, p<0.05 vs vehicle, FIG. 2",diminished in a statistically significant manner
same,Effect on spontaneous TNF-alpha production by PBMC,"TNF-alpha [1]; 10^−6 M, no stimulus",lowered the spontaneous TNF-alpha production
same,"Effect on TNF-alpha production by PBMC, spontaneous or anti-CD3 and anti-CD28 stimulated",TNF-alpha [2],neither inhibited the spontaneous TNF-alpha production nor the one obtained after stimulation with monoclonal antibodies anti-CD3 and anti-CD28
same,Effect on TNF-alpha production in LPS-stimulated PBMC,"TNF-alpha [2]; 10^−6 M, p<0.05, FIG. 4",significantly inhibited
same,"Effect on IL-8 production by PBMC, spontaneous or anti-CD3 and anti-CD28 induced",IL-8,neither modified the spontaneous IL-8 production nor that induced by the combination of monoclonal antibodies anti-CD3 and anti-CD28
same,Effect on LPS-induced production of IL-8 in PBMC,"IL-8; 10^−6 M and 10^−8 M, FIG. 8",significantly inhibited
same,Effect on CD62L shedding in lymphocytes,CD62L in lymphocytes,increases significantly
same,Effect on CD62L shedding in monocytes,CD62L in monocytes,significant differences were not observed
